These results are taken from patent US10406217B2, “Antifugetactic agents for the treatment of cancers” (The General Hospital Corporation, priority 2004, dated 2019).

The test system of the test is Protein Kinase C. The experiment in a line: Microfluidic migration assay of neutrophils in linear IL-8 gradients (mean chemotropism index). The class given is cell-based, Human. The settings on record: 25 μM pretreatment; IL-8 gradient in which fugetaxis is predominant (600 nM to 1.2 μM); p=0.0001. From the text:
Human whole blood was obtained from healthy volunteers by venipuncture into tubes-containing sodium heparin (Becton Dickinson, San Jose, Calif.). Neutrophils were isolated by density gradient centrifugation and purified by hypotonic lysis, as previously described (Tager, A. M., et al. 1998. Am J Respir Cell Mol Biol 19:643-52).
The microfluidic linear gradient generators were fabricated in poly(dimethylsiloxane) (PMDS; Sylgard 184, Dow Corning, N.Y.), and gradient generation was verified with fluorescin isothiocyanate (FITC; Sigma-Aldrich), as previously described (Li Jeon, N., et al. 2002. Nat Biotechnol 20:826-30; Whitesides, G. M., et al. 2001. Annu Rev Biomed Eng 3:335-73), […]
Cell movement was tracked using MetaMorph 4.5 (Universal Imaging, Dowington, Pa.) object tracking application, which generated tables of Cartesian coordinate data for each cell. Tracking data was analyzed in Excel (Microsoft, USA) and MATLAB 13 (The Mathworks, Inc., Newton, Mass.) to determine angular frequencies, mean squared displacements, migration velocities, persistence times, random motility coefficients, and random walk path lengths. […] For each cell, the squared displacement R(t) was calculated at time interval t, R^2(t)=(x(t0+t)−x(t0))^2+(y(t0+t)−y(t0))^2, (1) where t0 is the time at the origin. […]

The structures appear in SMILES notation.

For the compound `CN(C)CCCn1cc(C2=C(c3c[nH]c4ccccc34)C(=O)NC2=O)c2ccccc21` [GF 109230X], the “effect on neutrophil fugetaxis in IL-8 gradient” value was “selectively inhibited fugetaxis and converted a fugetactic response into a predominantly chemoattraction response”.
